The values that follow come from US9801850B2, “Antibacterial agent” (OSAKA UNIVERSITY, priority 2009, dated 2017).

Values after ≈ are worked out from the molar mass of the structure shown. A value given as a limit tells only on which side of the number the result lay.

Assay [1] concerns methicillin-resistant Staphylococcus aureus (MRSA) ATCC43300. Nature of the assay: MIC, broth microdilution (Example 1). The format is cell-based. To be noted: for MIC: MRSA ATCC43300, MH-broth, 37° C., 18 hours. A general note: In broth dilution the organism is exposed to a series of concentrations in liquid medium.
A further assay concerns MRSA ATCC43300. The assay can be described thus: Checker-board method, combination with β-lactam agent (Example 6). It is filed as cell-based, Staphylococcus aureus. Details: key to minimum EGCG-C16 concentration inhibiting growth alone: *MIC: The minimum EGCG-C16 concentration when the growth of the bacteria was inhibited using EGCG-C16 alone under a β-lactam agent free condition. The procedure: (§1) EGCG-C16 was dissolved in 100% DMSO, and each of the above-described β-lactam agents was dissolved in sterile distilled water. Thereafter, they were diluted with sterile distilled water so as to achieve predetermined concentrations, and the respective agents at the respective concentrations were combined one another. The change in MIC of each β-lactam agent by the addition of EGCG-C16 was measured by the checker-board method. […] The minimum inhibitory concentration (MIC) of each of the above-described β-lactam agents when used in combination with EGCG-C16 was measured in the same manner as described in Section (2) of Example 2, except that the MRSA ATCC43300 and the MRSA clinical isolate No. 8 used in Example 2 were used as the bacteria.
(§2) As Comparative Example 6, the minimum inhibitory concentration (MIC) was measured in the same manner as in Example 6, except that EGCG was used instead of EGCG-C16.

The test system of assay [2] is MRSA clinical isolate No. 8. The description is as above. More on the design: key to minimum EGCG-C16 concentration inhibiting growth alone: *MIC: The minimum EGCG-C16 concentration when the growth of the bacteria was inhibited using EGCG-C16 alone under a β-lactam agent free condition. It is filed as cell-based, Staphylococcus aureus. The procedure: as §1, §2
In assay [3] the test system is Escherichia coli MG1655 ΔacrD. Nature of the assay: MIC, influence of multidrug efflux pump (Example 5). It is filed as cell-based. The method, then:
(§3) Using the EGCG derivatives, the minimum inhibitory concentration (MIC) was measured in the same manner as described in Section (2) of Example 2, except that Escherichia coli MG1655 (hereinafter referred to as a wild-type strain) and gene deletion strains of Escherichia coli MG1655 were used as the bacteria. The gene deletion strains were: strains obtained by deleting the efflux pump genes, namely, acrB, acrD, and acrEF, respectively, in Escherichia coli MG1655 (ΔacrD, ΔacrEF, and ΔacrB); and a strain obtained by deleting the outer membrane protein tolC gene that couples to proteins encoded by the efflux pump genes (ΔtolC).
(§4) As Comparative Example 5, the minimum inhibitory concentration (MIC) was measured in the same manner as in Example 5, except that EGCG was used instead of the EGCG derivative.

Assay [4] has as its system Escherichia coli MG1655 ΔtolC. The description is as above. It is filed as cell-based. The method, then: as §3, §4
For assay [5], the system named is Escherichia coli MG1655 (wild type). The description is as above. It is filed as cell-based. The procedure: as §3, §4
The test system of assay [6] is Escherichia coli MG1655 ΔacrB. Described as above. The format is cell-based. The procedure:
as §3, §4

For assay [7], the system named is Escherichia coli MG1655 ΔacrEF. Described as above. It is filed as cell-based. The procedure: as §3, §4
Setting [8] is: MRSA ATCC43300, concentration of EGCG-C16 or EGCG 0 μg/ml.
[9] abbreviates: MRSA ATCC43300, concentration of EGCG-C16 or EGCG 8 μg/ml.
Setting [10] is: MRSA ATCC43300, concentration of EGCG-C16 or EGCG 16 μg/ml.
[11] abbreviates: MRSA ATCC43300, concentration of EGCG-C16 or EGCG 32 μg/ml.
Where [12] appears, read: MRSA ATCC43300, concentration of EGCG-C16 or EGCG 64 μg/ml.
[13] abbreviates: MRSA ATCC43300, concentration of EGCG-C16 or EGCG 128 μg/ml.
The mark [14] stands for this setting: concentration of EGCG-C16 or EGCG 0 μg/ml.
Where [15] appears, read: concentration of EGCG-C16 or EGCG 8 μg/ml.
[16] abbreviates: MRSA ATCC43300, concentration of EGCG-C16 or EGCG 2 μg/ml.
The mark [17] stands for this setting: MRSA ATCC43300, concentration of EGCG-C16 or EGCG 4 μg/ml.

As to `O=C(O[C@@H]1Cc2c(O)cc(O)cc2O[C@@H]1c1cc(O)c(O)c(O)c1)c1cc(O)c(O)c(O)c1` [EGCG, Epigallocatechin gallate, reference compound], the MIC (commonly the lowest concentration that inhibits growth of the organism) is 256 µg/mL (≈ 558 µM) in assay [1]; over 256 µg/mL in assay [3]; 128 µg/mL (≈ 279 µM) in assay [4]; over 256 µg/mL in assay [5]; 128 µg/mL (≈ 279 µM) in assay [6]; over 256 µg/mL in assay [7]. Further, the “antagonistic action in combination with IPM” value with MRSA ATCC43300 (ATCC43300, IPM susceptible, EGCG at 16 to 64 μg/ml, EGCG derivative in the examined concentration range) is listed as “weak antagonistic action”. Besides, the “MIC of ABPC when used in combination with EGCG-C16 or EGCG” value (“MIC of ABPC when used in combination” for short) in the assay with MRSA ATCC43300 (setting [8]) stood at 32 µg/mL; with MRSA ATCC43300 (setting [9]), 8 µg/mL; in the assay on MRSA ATCC43300 (setting [10]) it was 4 µg/mL; in the assay on MRSA ATCC43300 (setting [11]), 4 µg/mL; in the assay on MRSA ATCC43300 (setting [12]), 2 µg/mL; in the assay with MRSA ATCC43300 (setting [13]), 1 µg/mL. Moreover, the “MIC of ABPC when used in combination” value stood at 64 µg/mL in assay [2] (setting [14]); 4 µg/mL in assay [2] (setting [15]); 8 µg/mL in assay [2] (concentration of EGCG-C16 or EGCG 16 μg/ml); 8 µg/mL in assay [2] (concentration of EGCG-C16 or EGCG 32 μg/ml); 4 µg/mL in assay [2] (concentration of EGCG-C16 or EGCG 64 μg/ml); 1 µg/mL in assay [2] (concentration of EGCG-C16 or EGCG 128 μg/ml). For the same molecule, the “MIC of IPM when used in combination with EGCG-C16 or EGCG” value in the assay with MRSA ATCC43300 (setting [8]) was 0.016 µg/mL; in the assay on MRSA ATCC43300 (setting [9]), 0.016 µg/mL; with MRSA ATCC43300 (setting [10]) it was 0.031 µg/mL; with MRSA ATCC43300 (setting [11]) it was 0.031 µg/mL; in the assay with MRSA ATCC43300 (setting [12]), 0.031 µg/mL; in the assay on MRSA ATCC43300 (setting [13]), 0.016 µg/mL.
Regarding EGCG-α-linoleate [EGCG-C18TE], the MIC is over 128 µg/mL in assay [3]; 64 µg/mL in assay [4]; over 128 µg/mL in assay [5]; 64 µg/mL in assay [6]; over 128 µg/mL in assay [7].
EGCG-dioctanoate [EGCG-C8×2]: the MIC in assay [3] was over 128 µg/mL; in assay [4], 32 µg/mL; in assay [5], over 128 µg/mL; in assay [6], 64 µg/mL; in assay [7] it was over 128 µg/mL.
For the molecule EGCG-palmitoleate [EGCG-C16E], the MIC in assay [3] was over 128 µg/mL; in assay [4] it was 64 µg/mL; in assay [5], over 128 µg/mL; in assay [6], 64 µg/mL; in assay [7], over 128 µg/mL.
In turn, EGCG-stearate [EGCG-C18] showed a minimal inhibitory concentration (MIC) in assay [1] of 32 µg/mL.
As for EGCG-palmitate [EGCG-C16], the MIC in assay [1] was 8 µg/mL; in assay [3] it was over 128 µg/mL; in assay [4], 64 µg/mL; in assay [5], over 128 µg/mL; in assay [6], 64 µg/mL; in assay [7] it was over 128 µg/mL. In assay [1] (MRSA, FIG. 1 and Table 3), the “inhibition of propagation (MIC, turbidity OD600 nm)” value is “remarkable propagation-inhibiting effect”. The “MIC of ABPC when used in combination” value in the assay on MRSA ATCC43300 (setting [8]) amounted to 32 µg/mL; in the assay on MRSA ATCC43300 (setting [16]), 16 µg/mL; in the assay with MRSA ATCC43300 (setting [17]), 8 µg/mL; in the assay with MRSA ATCC43300 (setting [9]) it was 1 µg/mL; in assay [2] (setting [14]), 64 µg/mL; in assay [2] (concentration of EGCG-C16 or EGCG 2 μg/ml), 32 µg/mL. The “MIC of ABPC when used in combination” value in assay [2] (concentration of EGCG-C16 or EGCG 4 μg/ml) was found to be 16 µg/mL; in assay [2] (setting [15]) it was 2 µg/mL. The “MIC of IPM when used in combination with EGCG-C16 or EGCG” value in the assay with MRSA ATCC43300 (setting [8]) turned out to be 0.016 µg/mL; with MRSA ATCC43300 (setting [16]), 0.016 µg/mL; in the assay on MRSA ATCC43300 (setting [17]), 0.016 µg/mL; with MRSA ATCC43300 (setting [9]), 0.004 µg/mL. The “minimum EGCG-C16 concentration inhibiting growth alone” value in the assay on MRSA ATCC43300 (MRSA ATCC43300, β-lactam agent free, mark stands in the column 16 μg/ml) is “*MIC”; in assay [2] (β-lactam agent free, mark stands in the column 16 μg/ml), “*MIC”.
